GI50 and TGI data for six compounds are collected here from PubChem BioAssay (NCI).

Holding throughout (assay): NCI tumour cell line growth inhibition, 48 h
Assay [1] relates to A498 renal.
For assay [2], the system named is HCT-15 colon.
For assay [3], the system named is HOP-62 NSCLC.
The subject of assay [4] is K-562 leukemia.
For assay [5], the system named is PC-3 prostate.
Assay [6] relates to RPMI-8226 leukemia.
Assay [7] relates to SF-268 CNS.
Assay [8] relates to UACC-257 melanoma.
The subject of assay [9] is UACC-62 melanoma.
The test system of assay [10] is SF-295 CNS.

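Results reflect a 48-hour exposure of cells in 96-well plates to compound at five concentrations. GI50 is the concentration that inhibits growth by half. TGI marks complete inhibition of growth.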 A value given as a limit tells only on which side of the number the result lay.

In the case of `COc1ccc(N2CCN(c3nc(-c4ccccn4)nc4sc5c(c34)CCCCCC5)CC2)cc1`, the GI50 in assay [1] is 3300 nM; in assay [2] it was 4260 nM; in assay [3], 11400 nM; in assay [4], 4.15 µM; in assay [5], 3.31 µM; in [6], 3740 nM. The GI50 in assay [7] is greater than 100 µM; in assay [8], 7220 nM; in assay [9], 6860 nM. For the same compound, the TGI in assay [1], in assay [2], in assay [3], in [4], in assay [5] and in [6] was greater than 100 µM throughout. Further, the TGI in [7], in assay [8] and in [9] was greater than 100 µM throughout.
Regarding `CC#CC#C/C=C1/C=CC2(CCCCO2)O1` (stereo unspecified), the TGI in assay [1], in assay [2], in [4], in [5], in assay [7] and in assay [10] was greater than 100 µM each time. In addition, the TGI in [8] and in [9] was greater than 100 µM in each case.
Consider `COC1C[C@H](O[C@@H]2C[C@H](O[C@@H]3C[C@H](O[C@@H]4C(=O)c5c(cc6cc(O[C@H]7C[C@@H](O[C@H]8C[C@@H](O)[C@H](O)C(C)O8)[C@H](O)C(C)O7)c(C)c(O)c6c5O)C[C@H]4C(OC)C(=O)[C@@H](O)[C@@H](C)O)OC(C)[C@H]3O)OC(C)[C@@H]2O)OC(C)[C@@H]1O` (stereo partly specified), for which the GI50 was 39.5 nM in assay [1]; 2190 nM in assay [2]; 75.2 nM in assay [3]; 0.119 µM in assay [4]; 0.123 µM in assay [5]; 0.0864 µM in assay [7]. For the same compound, the GI50 was 104 nM in [10], 82.5 nM in assay [8] and 43.4 nM in assay [9]. For the same compound, the TGI is 0.108 µM in [1]; greater than 32.5 µM in assay [2]; greater than 32.5 µM in assay [3]; greater than 32.5 µM in assay [4]; greater than 32.5 µM in assay [5]; greater than 32.5 µM in assay [7]. Also, the TGI in assay [10] was greater than 32.5 µM; in assay [8] it was 0.262 µM; in assay [9], 0.134 µM.
`O=C(Nc1cccc(Cl)c1)Nc1cc(C(F)(F)F)ccc1Cl`: the GI50 in assay [1] is 2160 nM; in assay [2] it was 2660 nM; in assay [3], 2720 nM; in assay [4] it was 3.36 µM; in assay [5], 3.86 µM; in [6] it was 2330 nM. For the same compound, the values for the GI50 in assay [7], in assay [8] and in assay [9] were 3.55 µM, 2660 nM and 2800 nM, respectively. Moreover, the TGI amounted to 6.36 µM in assay [1]; 11.5 µM in [2]; 9.23 µM in assay [3]; 18.2 µM in [4]; 32.8 µM in [5]; 7.13 µM in assay [6]. Besides, the TGI worked out at 11.7 µM in assay [7], 5.84 µM in assay [8] and 13.7 µM in assay [9].
As for `O=C(O)[C@@H](Cc1ccccc1)NS(=O)(=O)c1ccc(-c2ccccc2)cc1`, the GI50 was 59600 nM in assay [1]; greater than 100000 nM in assay [2]; greater than 100000 nM in [3]; greater than 100 µM in assay [4]; greater than 100 µM in [5]; greater than 100 µM in [7]. Moreover, the GI50 in [10], in assay [8] and in [9] was greater than 100000 nM each time. Besides, the TGI in [1], in assay [2], in [3], in assay [4], in assay [5] and in assay [7] was greater than 100 µM in each case. Also, the TGI in assay [10], in assay [8] and in assay [9] was greater than 100 µM each time.
Regarding `c1ccc2cc(Cn3c(-c4cccc5ccccc45)[n+](Cc4ccc5ccccc5c4)c4c5ccccc5c5ccccc5c43)ccc2c1`, the GI50 in assay [1] was 193 nM; in assay [2] it was 398 nM; in assay [3] it was 387 nM; in [4] it was 0.224 µM; in assay [5], 0.158 µM; in assay [6] it was 101 nM. In addition, the GI50 was 203 nM in assay [10] and 302 nM in assay [9]. Further, the TGI in assay [1] was 0.779 µM; in [2], 1.88 µM; in assay [3] it was 2.45 µM; in [4], greater than 100 µM; in assay [5], 1.53 µM; in assay [6], 0.861 µM. Moreover, the results for the TGI in assay [10] and in assay [9] were 1.05 µM and 1.35 µM, respectively.
